One test deals with HCT116 xenograft tumors. The experiment in a line: HCT116 xenograft, monomer versus dimerized peptide, peritumoral. Format: in vivo, mouse. Particulars: HCT116 s.c. in NSG mice, peritumoral injection, monomer or dimerized, n = 5. An excerpt: Figure 5 Dimerized PS-acet.-STAT3 peptide has improved antitumor functions. (A) The enhanced antitumor effect of the dimerized PS-acet.-STAT3 peptide is shown in HCT116 tumors grown in NSG mice (n = 5). Two-way ANOVA (Tukey’s multiple comparisons test) was used for analyzing the kinetics of tumor growth over the treatment period; ****P < 0.001; *P < 0.05. (B) The dimerized PS-acet.-STAT3 peptide downregulates pY705-STAT3 more effectively, as analyzed by immunoprecipitation and Western blotting with tumor homogenates from the tumors in A. hc, heavy chain of antibody. […] (D) quantitative real-time RT-PCR showing mRNA levels of STAT3-regulated proapoptotic and prosurvival genes in HCT116 tumor tissues treated with the indicated STAT3 peptides in A. n = 3 independent quantitative real-time RT-PCR experiments. […] Right panels show the quantified Ki-67 protein levels as well as mean of vessel diameter (data include 5 fields of view per group). […]
Mouse care and experimental procedures were performed under pathogen-free conditions in accordance with established institutional guidance and approved IACUC protocols from Research Animal Care Committee of the City of Hope. […] Tumor growth was measured by a digital caliper every other day. […] Lungs were then analyzed for immune responses by immunostaining followed by confocal imaging. […] Tumor growth was measured by a digital caliper every other day. […]

The target in another test is STAT3 (Homo sapiens, UniProt P40763). Kind of test: Immunoprecipitation and Western blotting, STAT3. Particulars: immunoprecipitation, Western blotting, U251 cells. Format: binding. Also on record: endogenous in cells; host or cells: U251. The source says: Figure 2 PS-acet.-STAT3-peptide specifically binds STAT3 in the nucleus. (A) Penetration of PS-acet.-STAT3 peptide and its colocalization with STAT3 protein in U251 cells are confirmed by confocal microscopy. Scale bars: 50 μm. Insets: original magnification, ×40. (B) PS-acet.-STAT3 peptide specifically binds to STAT3 protein, not STAT1 and STAT5 proteins, shown in U251 cells by immunoprecipitation followed by Western blotting (left panel). Expression of total STAT1, STAT3, and STAT5 was confirmed by Western blotting in U251 cells (input protein level, right panel).
Whole cell lysates or tissue homogenates were prepared by using RIPA lysis buffer (50 mM Tris at pH 7.4, 150 mM NaCl, 1 mM EDTA, 0.5% NP-40, 1 mM NaF, 15% glycerol, and 20 mM β-glycerophosphate). […] Protein amounts were determined by BCA using a Thermo Fisher Scientific kit. […] The protein levels for STAT1 (sc-346, E-23), STAT3 (sc-482, C-20), STAT5 (sc-74442, A-9), Crm1 (exportin 1) (sc-5595, H-300), CAS (exportin 2) (sc-271537, H-2), exportin 5 (sc-66885, H-300), and exportin 7 (sc-98639, H-82) were determined using antibodies from Santa Cruz Biotechnology Inc. Anti–exportin 3 (exportin T, 630622, LOS1 05-1525), anti–exportin 4 (3499-1), and anti–exportin 6 (11408-1-AP) were from MilliporeSigma, Epitomics, and Proteintech, respectively. […]
In general terms: A western blot detects proteins with antibodies after separation by electrophoresis.

Results on one substance are retold here after paper PMC7934871 (JCI Insight, 2021).

Chain of STAT3 (P40763 whole entry): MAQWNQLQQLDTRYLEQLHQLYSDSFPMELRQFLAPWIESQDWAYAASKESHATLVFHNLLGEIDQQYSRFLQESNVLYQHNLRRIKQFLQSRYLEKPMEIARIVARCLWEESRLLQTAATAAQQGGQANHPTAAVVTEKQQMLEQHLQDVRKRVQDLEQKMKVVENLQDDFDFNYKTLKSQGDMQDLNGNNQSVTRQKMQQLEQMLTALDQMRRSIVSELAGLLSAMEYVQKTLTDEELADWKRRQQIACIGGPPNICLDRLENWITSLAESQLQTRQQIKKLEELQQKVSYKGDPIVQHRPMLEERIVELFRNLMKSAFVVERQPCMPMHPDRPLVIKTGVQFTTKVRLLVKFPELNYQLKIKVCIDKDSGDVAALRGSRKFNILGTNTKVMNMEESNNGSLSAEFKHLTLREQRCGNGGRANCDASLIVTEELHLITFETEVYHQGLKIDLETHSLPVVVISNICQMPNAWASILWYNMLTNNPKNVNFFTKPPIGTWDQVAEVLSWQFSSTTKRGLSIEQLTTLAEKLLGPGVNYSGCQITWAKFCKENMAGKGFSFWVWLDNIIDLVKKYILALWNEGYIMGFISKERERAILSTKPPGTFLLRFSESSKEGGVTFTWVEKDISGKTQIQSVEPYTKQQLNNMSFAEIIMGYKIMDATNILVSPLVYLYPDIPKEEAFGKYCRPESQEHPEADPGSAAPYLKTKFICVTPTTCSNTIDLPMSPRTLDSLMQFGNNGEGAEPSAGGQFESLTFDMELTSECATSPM

Consider “PDIPKEEAFGK685(Ac)YCRPESQEHPC-linker-T*C*C*A*T*G*A*G*C*T*T*C*C*T*G*A*T*G*C*T [PS-acet.-STAT3 peptide]”, for which, in the test with HCT116 xenograft tumors, the tumor growth entry was “significantly reduced”. Also, the “binding to STAT3 protein” value on STAT3 is “specifically bound”.
